Data taken from patent US9567319B2, “Compound having higher inhibitory activity on protein kinase G and preparation method thereof” (Jenkem Technology Co., Ltd., (Tianjin), priority 2014, dated 2017).
“And” between values parts separate entries of the source, which are not always exact repeats. Equal values may be shown once.

Legend:
[1] = test system: hyperalgesia induced by Freund's complete adjuvant (CFA) in rats; assay: Von Frey filament test, CFA induced hyperalgesia in rats; type: in vivo, SD rats; conditions: for Von Frey Filament Test Values (Mean ± SD), Baseline: pretreatment, n=8; for Von Frey Filament Test Values (Mean ± SD), 15 min: 15 min post treatment; for Von Frey Filament Test Values (Mean ± SD), 2 h: 2 h post treatment
Description: Compounds 46 and JK-02A were prepared according to the disclosure of US patent application No. US2008/0176920, and compound JK-02H was prepared according to Example 1. A repeat efficacy study was carried out on the same batch of animals with a single-dose treatment followed by a washing-out period. The 14 days in life studies included two stages: a single low dose treatment assessment on the 7th day and then a single high dose treatment test on the 14th day after CFA injection. On the 7th day after CFA injection, the rats were randomly assigned to respective groups using a computer generated randomization procedure based on the body weight and the baseline values of Von Frey and weight bearing test. Animals received corresponding single dose treatments (vehicle and 3 test articles) on the 7th and 14th days after CFA injection, respectively, and the effect of the test compounds were evaluated. Hyperalgesia of all the study animals was assessed following a single low dose treatment with the test articles on day 7, while a single high dose effect of the test article was evaluated on day 14. The mechanical hyperalgesia and weight bearing were measured on day 7 and day 14 after CFA injection, followed by administration of control or test articles. Von Frey filaments and weight bearing were measured on all the study animals at three time points on day 7, and four time points on day 14. An extra time point assessment was conducted on day 14, considering the strong analgesic effect of the test articles at a higher dose noticed during the test at the 3th time point. Mechanical hyperalgesia of the left hind paw was measured before and during the course of study in all animal groups by determining withdrawal thresholds to Von Frey filament (Bioseb, France). Increasing tensile force perpendicular to the plantar surface of the paw was applied to the filaments. The threshold for paw withdrawal was calculated by taking the average of 2-3 repeated stimuli (unit in “g”). On day 7, Von Frey Filament measurements were conducted three times, at the time points of pretreatment, 15 min and 2 hours post treatment. Following a one-week washing out period, on day 14 after CFA injection, Von Frey Filament tests were performed again four times post a single high dose administration. Rats treated with vehicle or high dose test articles were measured at the time points of pretreatment, 15 min, 2 and 5 hours post treatment. All the results were expressed as mean±SD. One-way analysis of variance (ANOVA) followed by a multiple comparison test were applied among the groups, p<0.05 accepted as significant.

[2] = test system: hyperalgesia induced by Freund's complete adjuvant (CFA) in rats; assay: Weight bearing test, CFA induced hyperalgesia in rats; type: in vivo, SD rats; conditions: for Weight Bearing Test Values (Mean ± SD), Baseline: pretreatment, n=8; for Weight Bearing Test Values (Mean ± SD), 15 min: 15 min post treatment; for Weight Bearing Test Values (Mean ± SD), 2 h: 2 h post treatment
Description: Compounds 46 and JK-02A were prepared according to the disclosure of US patent application No. US2008/0176920, and compound JK-02H was prepared according to Example 1. A repeat efficacy study was carried out on the same batch of animals with a single-dose treatment followed by a washing-out period. The 14 days in life studies included two stages: a single low dose treatment assessment on the 7th day and then a single high dose treatment test on the 14th day after CFA injection. On the 7th day after CFA injection, the rats were randomly assigned to respective groups using a computer generated randomization procedure based on the body weight and the baseline values of Von Frey and weight bearing test. Animals received corresponding single dose treatments (vehicle and 3 test articles) on the 7th and 14th days after CFA injection, respectively, and the effect of the test compounds were evaluated. Hyperalgesia of all the study animals was assessed following a single low dose treatment with the test articles on day 7, while a single high dose effect of the test article was evaluated on day 14. The mechanical hyperalgesia and weight bearing were measured on day 7 and day 14 after CFA injection, followed by administration of control or test articles. Von Frey filaments and weight bearing were measured on all the study animals at three time points on day 7, and four time points on day 14. An extra time point assessment was conducted on day 14, considering the strong analgesic effect of the test articles at a higher dose noticed during the test at the 3th time point. Rats distributed body weight unequally on the CFA-injected and contra lateral paws, which was measured by a weight balance changing instrument (Bio-medical, USA). The animals were tested in a box constructed to register the weight load exerted by the hind paws by means of force plates inserted in the floor. The mean weight bearing (unit in “g”) between the CFA-injected paw and the contra-lateral paw was determined in 10 seconds. The weight bearing test of all study animals was conducted at the same time intervals as the mechanical hyperalgesia test. All the results were expressed as mean±SD. One-way analysis of variance (ANOVA) followed by a multiple comparison test were applied among the groups, p<0.05 accepted as significant.

[3] = day 7 after CFA, low dose groups (46 and JK-02A 10 mg/kg, JK-02H 5 mg/kg)
[4] = day 7 after CFA, single low dose i.v. (46 and JK-02A 10 mg/kg, JK-02H 5 mg/kg)
[5] = day 14 after CFA, high dose groups (46 and JK-02A 40 mg/kg, JK-02H 20 mg/kg)
[6] = day 14 after CFA, single high dose i.v. (46 and JK-02A 40 mg/kg, JK-02H 20 mg/kg)
[7] = day 14 after CFA, single high dose i.v. (46 and JK-02A 40 mg/kg, JK-02H 20 mg/kg), 5 h post treatment
[8] = individual animal, high dose i.v. (46 and JK-02A 40 mg/kg, JK-02H 20 mg/kg), two repeated stimuli
[9] = individual animal, low dose i.v. (46 and JK-02A 10 mg/kg, JK-02H 5 mg/kg), two repeated stimuli
[10] = individual animal, high dose i.v. (46 and JK-02A 40 mg/kg, JK-02H 20 mg/kg)
[11] = individual animal, low dose i.v. (46 and JK-02A 10 mg/kg, JK-02H 5 mg/kg)

## CCCOc1ccc(F)c(F)c1C(=O)c1ccc(C(=O)N[C@@H]2CNC[C@H]2NC(=O)c2ccc3cn[nH]c3c2)cc1 [JK-02A]
[1]; [3]
  Von Frey Filament Test Values (Mean ± SD), Baseline: 6.89 ± 0.99 g
[1]; [4]
  Von Frey Filament Test Values (Mean ± SD), 15 min: 7.64 ± 1.83 g
  Von Frey Filament Test Values (Mean ± SD), 2 h: 7.43 ± 1.62 g
[1]; [5]
  Von Frey Filament Test Values (Mean ± SD), Baseline: 6.73 ± 0.74 g
[1]; [6]
  Von Frey Filament Test Values (Mean ± SD), 15 min: 8.63 ± 1.62 g
  Von Frey Filament Test Values (Mean ± SD), 2 h: 8.82 ± 1.20 g
[1]; [7]
  Von Frey Filament Test Values (Mean ± SD), 5 h: 8.45 ± 2.18 g
[1]; [8]
  Von Frey Values of Individual Animal, Day 14, 15 min: 9.3 g and 8.9 g and 6.5 g and 7.4 g (2×) and 10.9 g and 9.5 g (2×) and 6.1 g and 12.5 g and 10.6 g and 7.6 g and 9.2 g and 8.5 g and 10.7 g and 9.1 g
  Von Frey Values of Individual Animal, Day 14, 2 h: 8.7 g (2×) and 9.8 g and 9.5 g and 9.3 g (2×) and 9.4 g and 9.1 g and 8.5 g and 9.2 g and 8.2 g and 8.9 g and 9.6 g and 10.6 g and 6.2 g and 5.8 g
  Von Frey Values of Individual Animal, Day 14, 5 h: 11.9 g and 13.2 g and 6.7 g and 5.2 g and 8.3 g and 9.2 g and 9.7 g and 9.8 g and 8.8 g and 9.9 g and 6.4 g and 5.7 g and 7.3 g and 8.9 g and 7.4 g and 6.8 g
[1]; [9]
  Von Frey Values of Individual Animal, Day 7, 15 min: 9.1 g (3×) and 8.8 g and 6.3 g and 5.6 g (2×) and 10.2 g and 8.9 g and 10.0 g and 9.5 g (2×) and 5.7 g and 7.3 g and 6.0 g and 9.4 g
  Von Frey Values of Individual Animal, Day 7, 2 h: 6.6 g and 5.6 g and 7.0 g (3×) and 8.3 g and 7.4 g and 6.0 g and 8.9 g and 10.5 g and 10.4 g and 6.5 g and 7.1 g and 7.3 g and 5.1 g and 4.9 g
[1]; individual animal, pretreatment day 7, two repeated stimuli per animal
  First Baseline, Von Frey, individual animal: 5.1 g and 5.9 g and 5.8 g and 6.5 g and 6.9 g and 6.2 g and 5.2 g and 6.8 g (2×) and 7.8 g and 7.3 g and 7.6 g (2×) and 7.9 g and 8.2 g and 8.6 g
[1]; individual animal, pretreatment day 14 after washing-out, two repeated stimuli per animal
  Second Baseline, Von Frey, individual animal: 7.1 g (2×) and 5.3 g and 5.2 g and 7.4 g and 7.3 g and 6.0 g and 7.6 g and 6.4 g (2×) and 6.6 g and 7.7 g and 7.5 g (2×) and 5.8 g and 6.7 g
[2]; [3]
  Weight Bearing Test Values (Mean ± SD), Baseline: 48.18 ± 5.05 g
[2]; [4]
  Weight Bearing Test Values (Mean ± SD), 15 min: 38.11 ± 11.23 g
  Weight Bearing Test Values (Mean ± SD), 2 h: 36.24 ± 9.72 g
[2]; [5]
  Weight Bearing Test Values (Mean ± SD), Baseline: 49.54 ± 7.39 g
[2]; [6]
  Weight Bearing Test Values (Mean ± SD), 15 min: 28.43 ± 8.83 g
  Weight Bearing Test Values (Mean ± SD), 2 h: 33.36 ± 8.92 g
[2]; [7]
  Weight Bearing Test Values (Mean ± SD), 5 h: 42.69 ± 7.52 g
[2]; [10]
  Weight Bearing Values of Individual Animal, Day 14, 15 min, Left: 58.9 g and 57.8 g and 49.6 g and 53.7 g and 52.7 g and 50.9 g and 67.1 g and 72.2 g
  Weight Bearing Values of Individual Animal, Day 14, 15 min, Right: 77.1 g and 95.3 g and 77.6 g and 90.1 g and 80.4 g and 80.1 g and 104.0 g and 85.7 g
  Weight Bearing Values of Individual Animal, Day 14, 15 min, Δ: 18.2 g and 37.5 g and 28.0 g and 36.4 g and 27.7 g and 29.2 g and 36.9 g and 13.5 g
  Weight Bearing Values of Individual Animal, Day 14, 2 h, Left: 66.8 g and 71.9 g and 48.9 g and 60.7 g and 50.1 g and 54.6 g and 44.8 g and 72.2 g
  Weight Bearing Values of Individual Animal, Day 14, 2 h, Right: 97.0 g and 106.5 g and 97.2 g and 81.1 g and 79.8 g and 91.1 g and 86.5 g and 97.7 g
  Weight Bearing Values of Individual Animal, Day 14, 2 h, Δ: 30.2 g and 34.6 g and 48.3 g and 20.4 g and 29.7 g and 36.5 g and 41.7 g and 25.5 g
  Weight Bearing Values of Individual Animal, Day 14, 5 h, Left: 38.0 g and 62.9 g and 55.0 g and 45.7 g and 52.7 g and 39.7 g and 54.9 g and 68.2 g
  Weight Bearing Values of Individual Animal, Day 14, 5 h, Right: 77.2 g and 99.3 g and 93.8 g and 90.7 g and 92.0 g and 99.9 g and 95.3 g and 110.4 g
  Weight Bearing Values of Individual Animal, Day 14, 5 h, Δ: 39.2 g and 36.4 g and 38.8 g and 45.0 g and 39.3 g and 60.2 g and 40.4 g and 42.2 g
[2]; [11]
  Weight Bearing Values of Individual Animal, Day 7, 15 min, Left: 36.6 g and 56.4 g and 47.8 g and 37.9 g and 36.9 g and 50.5 g and 25.4 g and 65.6 g
  Weight Bearing Values of Individual Animal, Day 7, 15 min, Right: 83.8 g and 79.1 g and 74.1 g and 89.5 g and 62.9 g and 93.7 g and 69.1 g and 109.8 g
  Weight Bearing Values of Individual Animal, Day 7, 15 min, Δ: 47.2 g and 22.7 g and 26.3 g and 51.6 g and 26.0 g and 43.2 g and 43.7 g and 44.2 g
  Weight Bearing Values of Individual Animal, Day 7, 2 h, Left: 68.5 g and 68.0 g and 31.5 g and 39.9 g and 43.9 g and 37.3 g and 52.3 g and 62.2 g
  Weight Bearing Values of Individual Animal, Day 7, 2 h, Right: 99.4 g and 85.5 g and 80.7 g and 75.7 g and 77.3 g and 73.4 g and 95.8 g and 105.7 g
  Weight Bearing Values of Individual Animal, Day 7, 2 h, Δ: 30.9 g and 17.5 g and 49.2 g and 35.8 g and 33.4 g and 36.1 g and 43.5 g (2×)
[2]; individual animal, pretreatment day 7, left (CFA-injected) hind paw
  First Baseline, Balance Left, individual animal: 54.2 g and 57.2 g and 45.5 g and 64.4 g and 45.6 g and 12.0 g and 58.0 g and 64.0 g
[2]; individual animal, pretreatment day 7, right hind paw
  First Baseline, Balance Right, individual animal: 103.7 g and 98.1 g and 93.0 g and 117.4 g and 90.5 g and 66.3 g and 100.6 g and 116.7 g
[2]; individual animal, pretreatment day 7, right minus left
  First Baseline, Balance Δ, individual animal: 49.5 g and 40.9 g and 47.5 g and 53.0 g and 44.9 g and 54.3 g and 42.6 g and 52.7 g
[2]; individual animal, pretreatment day 14, left (CFA-injected) hind paw
  Second Baseline, Balance Left, individual animal: 32.1 g and 47.3 g and 30.4 g and 45.9 g and 50.1 g and 39.6 g and 33.5 g and 57.1 g
[2]; individual animal, pretreatment day 14, right hind paw
  Second Baseline, Balance Right, individual animal: 89.3 g and 90.0 g and 81.0 g and 87.2 g and 92.4 g and 90.4 g and 94.1 g and 97.9 g
[2]; individual animal, pretreatment day 14, right minus left
  Second Baseline, Balance Δ, individual animal: 57.2 g and 42.7 g and 50.6 g and 41.3 g and 52.3 g and 50.8 g and 60.6 g and 40.8 g
